According to US10159685B2, “Vascular calcification” (Cambridge Enterprise Limited, priority 2016, dated 2018):
Read-outs that look alike come from different tables or passages of the source. Marks after values point to notes of the source that are not given here.

Tests used:
Type in all cases: cell-based
[1] = tested on: human monocyte-macrophages (HMMs); experiment: MTT toxicity assay, HMMs, seven days (Example 3); settings: 7 days; for Cell viability by MTT, percent of control: mean of three experiments; for Toxicity to HMMs (in words): at a concentration of 100 μM
Description: A similar set of toxicity experiments was performed with human monocyte-macrophages (HMMs).

[2] = tested on: bovine vascular smooth muscle cells (bVSMCs); settings: 7 days; for Cell viability of bVSMCs after seven days (MTT signal, relative to control): mean of three experiments; for Toxicity to bVSMCs (MTT assay, in words): at the concentrations tested (0.5 to 100 μM)
Description: The toxicity of the identified compounds to bovine VSMCs was measured using the MTT assay, which measures the activity of dehydrogenase enzymes of live cells. This assay can pick up both cell death and proliferation.
Bovine VSMCs were seeded in 96 well plates and cultured in M199/20% FCS for 1 day. Then, the cells were incubated with inhibitor concentrations from 0.5 to 100 μM (in M199 medium+5% FBS). The cells were incubated with the inhibitors for 7 days; every 2-3 days the medium −/+inhibitors was exchanged. Then, the MTT assay was performed. The stock vehicle DMSO was tested at corresponding concentrations to the inhibitors at 0.1% DMSO or less.

[3] = tested on: bovine vascular smooth muscle cells (bVSMCs); experiment: o-Cresolphthalein Ca2+ assay, bVSMC GAD calcification model (Examples 4 and 5); settings: GAD-treated bVSMCs, 10 μM, 7 d
Description: For the bVSMCs a GAD medium (10 mM β-glycerophosphate/0.1 mM L-ascorbic acid-2-phosphate/10 nM dexamethasone) model was used to induce mineralization in bVSMCs. Accordingly, cells were seeded in tissue culture plates using M199/20% FCS culture medium and cultured overnight. The next day, cells were treated either with medium only (M199/5% FBS)+/−inhibitors, or with the GAD-medium (10 mM β-glycerophosphate/0.1 mM L-ascorbic acid-2-phosphate/[…] dexamethasone)+/−inhibitors.
Medium+/−inhibitors was exchanged every 2-3 days. […]
The o-Cresolphthalein assay is a spectrophotometric method for measuring Ca^2+-concentrations in cell/tissue lysates. Following the calcification experiments, cells are briefly washed to remove medium and 100 […]1 of 0.1 N HCl is added to each well to dissolve any mineral deposits. Then, the Ca^2+-concentration of the samples is measured spectrophotometrically (at 570 nm) in the o-cresolphthalein assay with the help of a CaCl2 standard curve in a concentration range of ˜0.02-270 µg Ca^2+/ml.
The commercial BioRad DC protein assay is based on the Lowry method, aka reaction of proteins with a copper-tartrate complex and subsequent reaction with Folin's reagent. Following the calcification experiment, cells are briefly washed to remove medium and 100 µl of solubilisation solution (0.1 M NaOH/1% SDS/DIW) is added to each well to lyse the cells. The protein concentrations of the lysates are subsequently determined in the BioRad DC assay as per supplier's instructions using BSA (bovine serum albumin) as standard.
The in vitro model is the same as the model used in example 4; bovine vascular smooth muscle cells (bVSMCs) cultured so that they produce extracellular matrix, with the addition of the GAD medium (10 mM β-glycerophosphate/0.1 mM L-ascorbic acid-2-phosphate/10 nM dexamethasone).
As above, cells were treated either with medium only (“no-additions”; NA)+/−inhibitors, or with the GAD-medium+/−inhibitors. The inhibitors used were PJ34 and minocyclin (MC) at 10 μM, 1 μM and 0.1 μM.
The methodology was the same as that described in example 4.

[4] = tested on: human vascular smooth muscle cells (hVSMCs); experiment: o-Cresolphthalein Ca2+ assay, hVSMC Ca/P calcification model (Examples 7-9); settings: for Inhibition of calcification, normalised results (FIG. 27) / Normalised calcium levels (mass of calcium per mass of protein, FIG. 22): hVSMCs, 8 days; for Inhibition of calcification, normalised results (FIG. 27): concentrations between 0.05 μM and 3 μM; for Extracellular matrix calcification (summary statement): bovine cell and human cell in vitro vascular calcification model; for Normalised calcium levels (mass of calcium per mass of protein, FIG. 22): 3 μM
Description: (§1) Primary hVSMCs were cultured in M199 media containing FBS (M199/5% FBS). They were plated at a known cell density, allowed to grow for 24 hours and then treated with control (DMSO only) or calcification media (DMSO containing 2.7 mM Calcium+2.5 mM phosphate)+/−inhibitors. After 6 days, calcification was assessed using the o-Cresolphthalein assay for quantification of Ca^2+ deposition and a BioRad protein assay for protein content.
Medium+/−inhibitors was exchanged every 2-3 days.
as §1, with “8” for “6”, “using” for “using the”
All of the compounds tested were used at a concentration of 3 μM. Medium+/−inhibitors was exchanged every 2-3 days.
as §1, with “phosphate)+/−compounds.” for “phosphate)+/−inhibitors.”, “8” for “6”, “using” for “using the”
These concentrations were chosen to mimic the systemic concentrations of these drugs following patient dosing according to the dose schedule in the prescribing information for each drug. Medium+/−inhibitors was exchanged every 2-3 days.

SMILES | Cell viability by MTT, percent of control ([1]; 0.5 uM) | Cell viability by MTT, percent of control ([1]; 1 uM) | Cell viability by MTT, percent of control ([1]; 2 uM) | Cell viability by MTT, percent of control ([1]; 5 uM) | Cell viability by MTT, percent of control ([1]; 10 uM) | Cell viability by MTT, percent of control ([1]; 20 uM) | Cell viability by MTT, percent of control ([1]; 50 uM) | Cell viability by MTT, percent of control ([1]; 100 uM) | Toxicity to HMMs (in words) [1] | Cell viability of bVSMCs after seven days (MTT signal, relative to control) ([2]; 0.5 uM) | Cell viability of bVSMCs after seven days (MTT signal, relative to control) ([2]; 1 uM) | Cell viability of bVSMCs after seven days (MTT signal, relative to control) ([2]; 2 uM) | Cell viability of bVSMCs after seven days (MTT signal, relative to control) ([2]; 5 uM) | Cell viability of bVSMCs after seven days (MTT signal, relative to control) ([2]; 10 uM) | Cell viability of bVSMCs after seven days (MTT signal, relative to control) ([2]; 20 uM) | Cell viability of bVSMCs after seven days (MTT signal, relative to control) ([2]; 50 uM) | Cell viability of bVSMCs after seven days (MTT signal, relative to control) ([2]; 100 uM) | Toxicity to bVSMCs (MTT assay, in words) [2] | Inhibition of calcification, normalised results (FIG. 27) [4] | Extracellular matrix calcification (summary statement) [4] | other results
O=C1NCCc2c(OCCCCN3CCCCC3)cccc21 [DPQ, 3,4-dihydro-5-[4-(1-piperidinyl)butoxyl]-1(2H)-isoquinolinone] | 106.61 | 88.68 | 89.59 | 95.11 | 91.82 | 91.99 | 86.74 | 90.94 | relatively innocuous | 100.30 | 101.78 | 92.11* | 94.96 | 92.58* | 94.24* | 89.46* | 89.87* | virtually non-toxic | – | – | –
COc1ccc([C@@H]2Sc3ccccc3N(CCN(C)C)C(=O)[C@@H]2OC(C)=O)cc1 [Diltiazem, diltiazem] | 97.10 | 104.94 | 99.61 | 91.09 | 92.45 | 100.42 | 92.16 | 53.65* | most toxic | 98.78 | 96.07 | 89.48* | 91.88* | 94.54 | 113.60* | 143.28* | 119.64* | non-toxic | – | – | Stimulatory effect on bVSMCs (MTT assay) ([2]; at 20 μM and above): stimulatory effect; Calcium levels (mass of calcium, FIG. 7B) compared to no inhibitors [3]: lower calcium levels; Normalised calcium levels (mass of calcium per mass of protein, FIG. 9B) [3]: slightly lower calcium levels
CC(=O)CCCCn1c(=O)c2c(ncn2C)n(C)c1=O [Pentoxifylline, pentoxifylline] | 98.73 | 90.57 | 91.92 | 107.27 | 88.35 | 93.54 | 89.28 | 89.64 | relatively innocuous | 97.68 | 95.91 | 92.19* | 91.33* | 91.77* | 92.43* | 93.01* | 96.96 | virtually non-toxic | do not inhibit calcification | – | Calcium levels (mass of calcium, FIG. 7B) compared to no inhibitors [3]: no effect; Normalised calcium levels (mass of calcium per mass of protein, FIG. 9B) [3]: slightly lower calcium levels
CC(C)c1c(C(=O)Nc2ccccc2)c(-c2ccccc2)c(-c2ccc(F)cc2)n1CC[C@@H](O)C[C@@H](O)CC(=O)O [atorvastatin] | – | – | – | – | – | – | – | – | – | – | – | – | – | – | – | – | – | – | do not inhibit medial vascular calcification | – | –
COc1ccccc1Oc1c(NS(=O)(=O)c2ccc(C(C)(C)C)cc2)nc(-c2ncccn2)nc1OCCO [bosentan MH, Bosentan monohydrate] | 91.59 | 99.82 | 97.16 | 84.90 | 79.36 | 83.25 | 73.65 | 64.97* | most toxic | 101.97 | 96.12 | 91.91* | 93.05* | 93.87* | 97.20 | 103.69 | 85.05* | little toxicity | do not inhibit calcification | – | Calcium levels (mass of calcium, FIG. 7B) compared to no inhibitors [3]: no effect; Normalised calcium levels (mass of calcium per mass of protein, FIG. 9B) [3]: slightly lower calcium levels
CCCCc1nc(Cl)c(CO)n1Cc1ccc(-c2ccccc2-c2nn[nH]n2)cc1 [losartan] | – | – | – | – | – | – | – | – | – | – | – | – | – | – | – | – | – | – | do not inhibit medial vascular calcification | – | –
NC(=O)c1cccc2cn(-c3ccc([C@@H]4CCCNC4)cc3)nc12 [niraparib] | – | – | – | – | – | – | – | – | – | – | – | – | – | – | – | – | – | – | – | significantly reduce extracellular matrix calcification | Normalised calcium levels (mass of calcium per mass of protein, FIG. 22) [4]: particularly effective
O=C(c1cc(Cc2n[nH]c(=O)c3ccccc23)ccc1F)N1CCN(C(=O)C2CC2)CC1 [olaparib] | – | – | – | – | – | – | – | – | – | – | – | – | – | – | – | – | – | – | – | significantly reduce extracellular matrix calcification | –
CNCc1ccc(-c2[nH]c3cc(F)cc4c3c2CCNC4=O)cc1 [rucaparib] | – | – | – | – | – | – | – | – | – | – | – | – | – | – | – | – | – | – | – | significantly reduce extracellular matrix calcification | Normalised calcium levels (mass of calcium per mass of protein, FIG. 22) [4]: particularly effective
Cn1ncnc1[C@H]1c2n[nH]c(=O)c3cc(F)cc(c23)N[C@@H]1c1ccc(F)cc1 [talazoparib] | – | – | – | – | – | – | – | – | – | – | – | – | – | – | – | – | – | – | – | significantly reduce extracellular matrix calcification | –
C[C@]1(c2nc3c(C(N)=O)cccc3[nH]2)CCCN1 [veliparib] | – | – | – | – | – | – | – | – | – | – | – | – | – | – | – | – | – | – | inhibit calcification significantly and repeatedly | significantly reduce extracellular matrix calcification | Normalised calcium levels (mass of calcium per mass of protein, FIG. 22) [4]: particularly effective
